The source of these data is PubChem BioAssay (NCI).

Among the test systems are HOP-92 NSCLC; HCT-116 colon; NCI/ADR-RES ovarian; LOX IMVI melanoma; SF-268 CNS; CCRF-CEM leukemia; U251 CNS; HS 578T breast; UO-31 renal; SF-539 CNS.
Assay in all cases: DTP human tumour cell line panel, 48 h

Several values for one entry are separate records, joined by “and”; a condition that tells them apart may be missing. Identical values can stand only once.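 Dose response: 5 concentrations. Exposure: 48 h. Format: 96-well plates. Endpoint: linear interpolation; highest concentration if not reached. At the GI50, growth is halved. At the TGI there is no net growth.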 A value given as a limit tells only on which side of the number the result lay.

In general, GI50 refers to the concentration that inhibits growth by half. For orientation: TGI means the concentration giving total growth inhibition. Lower therefore signals greater sensitivity of the cells. `CCCCCn1sc(=O)n(Cc2ccc(CNC(=O)C(C)c3ccc(CC(C)C)cc3)cc2)c1=O` (stereo unspecified): the GI50 in the test on HOP-92 NSCLC was 577 nM; in the test on HCT-116 colon, 194 nM; in the test with NCI/ADR-RES ovarian, 1650 nM; in the test with LOX IMVI melanoma it was 474 nM; with SF-268 CNS, 1520 nM; with CCRF-CEM leukemia, 337 nM. Also, the GI50 with U251 CNS is 1560 nM; with HS 578T breast, 1560 nM; in the test on UO-31 renal, 561 nM; in the test on SF-539 CNS it was 1190 nM. For the same compound, the TGI in the test with HOP-92 NSCLC stood at 2090 nM; with HCT-116 colon, 720 nM; with NCI/ADR-RES ovarian, 5540 nM; in the test on LOX IMVI melanoma, 1520 nM; in the test on SF-268 CNS it was 2960 nM; with U251 CNS it was 3040 nM. The TGI is 4360 nM in the test with HS 578T breast, 1990 nM with UO-31 renal and 2440 nM with SF-539 CNS.

As for `COc1ccc(/C(=C(\c2ccccc2)[N+](=O)[O-])c2ccc(OCCN3CCCC3)cc2)cc1`, the GI50 was 2250 nM with HOP-92 NSCLC; 2460 nM with HCT-116 colon; 8410 nM with NCI/ADR-RES ovarian; 2050 nM with LOX IMVI melanoma; 5990 nM in the test on SF-268 CNS; 5190 nM with CCRF-CEM leukemia. The GI50 in the test with U251 CNS is 2840 nM; with HS 578T breast, 2320 nM; in the test on UO-31 renal, 1120 nM; in the test on SF-539 CNS, 1390 nM. Moreover, the concentration for total growth inhibition (TGI) in the test on HOP-92 NSCLC stood at 12000 nM; with HCT-116 colon, 13500 nM; in the test with NCI/ADR-RES ovarian, 24200 nM; in the test with LOX IMVI melanoma, 6730 nM; in the test with SF-268 CNS it was 20000 nM; in the test with CCRF-CEM leukemia, 22900 nM. Further, the TGI with U251 CNS was 12600 nM; in the test with HS 578T breast it was 10900 nM; in the test with UO-31 renal, 4200 nM; in the test on SF-539 CNS, 3420 nM.

For `CC[C@H](C)[C@H](NC(=O)CN(C)C)C(=O)N(C)[C@H](C[C@@H](OC(C)=O)c1nc(C(=O)NC23C4C5C2C2C3C4C52C(=O)OC)cs1)C(C)C` (stereo partly specified), the GI50 with HOP-92 NSCLC was over 33200 nM; with HCT-116 colon it was 201 nM; with NCI/ADR-RES ovarian it was 11100 nM; in the test with LOX IMVI melanoma, 321 nM; with SF-268 CNS, 668 nM; with CCRF-CEM leukemia it was 180 nM. The GI50 in the test with U251 CNS is 800 nM; with HS 578T breast, 176 nM; in the test with UO-31 renal it was 3600 nM; in the test with SF-539 CNS, 462 nM. Further, the TGI in the test with HOP-92 NSCLC, with HCT-116 colon, with NCI/ADR-RES ovarian, with LOX IMVI melanoma, with SF-268 CNS and with CCRF-CEM leukemia was over 33200 nM in each case. For the same compound, the TGI in the test on U251 CNS is over 33200 nM; with HS 578T breast it was over 33200 nM; with UO-31 renal, over 33200 nM; in the test on SF-539 CNS, over 14100 nM.

Regarding `COc1cc2c(cc1O)CCN[C@@]21CS[C@H]2c3c(OC(C)=O)c(C)c4c(c3C(COC1=O)N1C2C2NC(Cc3cc(C)c(OC)c(O)c32)[C@@H]1O)OCO4` (stereo partly specified), the GI50 was 0.000135 ng/mL in the test with HOP-92 NSCLC; 4.5 ng/mL in the test with HCT-116 colon; 4.5 ng/mL in the test on LOX IMVI melanoma; 4.5 ng/mL in the test with SF-268 CNS; 4.5 ng/mL in the test with CCRF-CEM leukemia; 4.5 ng/mL in the test on U251 CNS. Besides, the GI50 with UO-31 renal is 10.8 ng/mL; with SF-539 CNS, 4.5 ng/mL. Moreover, the TGI with HOP-92 NSCLC is 9.17 µM and 5.9e-07 µg/mL; in the test with HCT-116 colon, 11.9 µM and 4.86 µg/mL; in the test with NCI/ADR-RES ovarian it was 36.9 nM; in the test with LOX IMVI melanoma it was 1970 ng/mL; with SF-268 CNS, < 10 nM and 4.8e-07 µg/mL and 0.0045 µg/mL; in the test with CCRF-CEM leukemia it was > 100 µM and 0.000154 µg/mL and 0.0045 µg/mL. The TGI in the test with U251 CNS was < 10 nM and 0.28 µg/mL; with HS 578T breast it was 302 nM; with UO-31 renal it was 21.3 nM and 0.255 µg/mL; in the test on SF-539 CNS, < 10 nM and 0.0045 µg/mL.

As to `OC[C@H]1C[C@](O)(c2ccccc2Cl)[C@@H](c2ccccc2Cl)O1`, the GI50 in the test on HOP-92 NSCLC was 22200 nM; in the test with HCT-116 colon, 25700 nM; in the test with NCI/ADR-RES ovarian, 29400 nM; in the test on LOX IMVI melanoma, 16900 nM; in the test on SF-268 CNS, 24200 nM; with CCRF-CEM leukemia it was 27800 nM. Also, the GI50 in the test with U251 CNS is 28500 nM; with HS 578T breast, 16300 nM; in the test with UO-31 renal, 23000 nM; in the test on SF-539 CNS, 22400 nM. The TGI with HOP-92 NSCLC was 58800 nM; in the test on HCT-116 colon, 68600 nM; in the test on NCI/ADR-RES ovarian it was over 100000 nM; with LOX IMVI melanoma it was 34300 nM; in the test on SF-268 CNS it was over 100000 nM; in the test with CCRF-CEM leukemia, over 100000 nM. Besides, the TGI in the test on U251 CNS is over 100000 nM; with HS 578T breast it was 38400 nM; in the test with UO-31 renal it was 57400 nM; in the test on SF-539 CNS it was 50700 nM.

`Oc1ccccc1/C=N\NC(=S)Nc1ccc(F)cc1`: the GI50 in the test with HOP-92 NSCLC was 962 nM; in the test with HCT-116 colon, 403 nM; with NCI/ADR-RES ovarian, 443 nM; with LOX IMVI melanoma, 708 nM; with SF-268 CNS, 950 nM; with CCRF-CEM leukemia, 396 nM. The GI50 was 639 nM with U251 CNS, 5140 nM in the test with HS 578T breast, 472 nM in the test on UO-31 renal and 2120 nM in the test with SF-539 CNS. Besides, the TGI with HOP-92 NSCLC is over 100000 nM; in the test with HCT-116 colon, over 100000 nM; in the test on NCI/ADR-RES ovarian it was over 37800 nM; in the test on LOX IMVI melanoma, over 79700 nM; in the test on SF-268 CNS, over 73600 nM; with U251 CNS, over 100000 nM. Also, the TGI in the test on HS 578T breast is over 100000 nM; with UO-31 renal, 4970 nM; in the test on SF-539 CNS, 32300 nM.

Turning to `COc1cc2c3c(c4ccc(O)cc4c2cc1OC)[C@@H](O)[C@@H]1CCCN1C3`, the TGI was 19.1 nM with HOP-92 NSCLC; 1.88 nM with HCT-116 colon; 532 nM in the test on NCI/ADR-RES ovarian; 3.39 nM in the test on LOX IMVI melanoma; 1.8 nM with SF-268 CNS; 7.3 nM with CCRF-CEM leukemia. Besides, the TGI with U251 CNS was 2.41 nM; in the test on HS 578T breast, 5.66 nM; with UO-31 renal it was 21.1 nM; in the test with SF-539 CNS, under 11.4 nM.
